`Nc1ccc(S(=O)(=O)O)cc1` gave a solubility (mole fraction) (in acetic acid, 288.15 K) of 0.00204, a solubility (mole fraction) (in acetic acid, 293.15 K) of 0.00217 and a solubility (mole fraction) (in acetic acid, 298.15 K) of 0.00227. The solubility (mole fraction) (in acetic acid, 303.15 K) was 0.0024, the solubility (mole fraction) (in acetic acid, 308.15 K) was 0.00252 and the solubility (mole fraction) (in acetic acid, 313.15 K) was 0.00264. It also gave a solubility (mole fraction) (in acetic acid, 318.15 K) of 0.00277, a solubility (mole fraction) (in acetic acid, 323.15 K) of 0.00291 and a solubility (mole fraction) (in acetic acid, 328.15 K) of 0.00304. The solubility (mole fraction) (in acetone, 278.15 K) was 0.000291, the solubility (mole fraction) (in acetone, 283.15 K) was 0.000296 and the solubility (mole fraction) (in acetone, 288.15 K) was 0.000303. It also gave a solubility (mole fraction) (in acetone, 293.15 K) of 0.00031, a solubility (mole fraction) (in acetone, 298.15 K) of 0.000317 and a solubility (mole fraction) (in acetone, 303.15 K) of 0.000324. It also gave a solubility (mole fraction) (in acetone, 308.15 K) of 0.000332, a solubility (mole fraction) (in acetone, 313.15 K) of 0.000338 and a solubility (mole fraction) (in acetone, 318.15 K) of 0.000346. For the same compound, the solubility (mole fraction) (in acetone, 323.15 K) was 0.000353, the solubility (mole fraction) (in acetone, 328.15 K) was 0.00036 and the solubility (mole fraction) (in acetonitrile, 278.15 K) was 0.000132. For the same compound, the solubility (mole fraction) (in acetonitrile, 283.15 K) was 0.000144, the solubility (mole fraction) (in acetonitrile, 288.15 K) was 0.000165 and the solubility (mole fraction) (in acetonitrile, 293.15 K) was 0.000178. The solubility (mole fraction) (in acetonitrile, 298.15 K) was 0.000195, the solubility (mole fraction) (in acetonitrile, 303.15 K) was 0.000214 and the solubility (mole fraction) (in acetonitrile, 308.15 K) was 0.000235. The solubility (mole fraction) (in acetonitrile, 313.15 K) was 0.000255, the solubility (mole fraction) (in acetonitrile, 318.15 K) was 0.000274 and the solubility (mole fraction) (in acetonitrile, 323.15 K) was 0.000301. It also gave a solubility (mole fraction) (in acetonitrile, 328.15 K) of 0.000324, a solubility (mole fraction) (in ethanol, 278.15 K) of 0.000213 and a solubility (mole fraction) (in ethanol, 283.15 K) of 0.000231. For the same compound, the solubility (mole fraction) (in ethanol, 288.15 K) was 0.000251, the solubility (mole fraction) (in ethanol, 293.15 K) was 0.000264 and the solubility (mole fraction) (in ethanol, 298.15 K) was 0.000284. For the same compound, the solubility (mole fraction) (in ethanol, 303.15 K) was 0.0003, the solubility (mole fraction) (in ethanol, 308.15 K) was 0.000323 and the solubility (mole fraction) (in ethanol, 313.15 K) was 0.000338. For the same compound, the solubility (mole fraction) (in ethanol, 318.15 K) was 0.000363, the solubility (mole fraction) (in ethanol, 323.15 K) was 0.000385 and the solubility (mole fraction) (in ethanol, 328.15 K) was 0.000403. For the same compound, the solubility (mole fraction) (in formic acid, 278.15 K) was 0.00106, the solubility (mole fraction) (in formic acid, 283.15 K) was 0.00116 and the solubility (mole fraction) (in formic acid, 288.15 K) was 0.00129. For the same compound, the solubility (mole fraction) (in formic acid, 293.15 K) was 0.00139, the solubility (mole fraction) (in formic acid, 298.15 K) was 0.00152 and the solubility (mole fraction) (in formic acid, 303.15 K) was 0.00166. It also gave a solubility (mole fraction) (in formic acid, 308.15 K) of 0.00181, a solubility (mole fraction) (in formic acid, 313.15 K) of 0.00196 and a solubility (mole fraction) (in formic acid, 318.15 K) of 0.00213. It also gave a solubility (mole fraction) (in formic acid, 323.15 K) of 0.00231, a solubility (mole fraction) (in formic acid, 328.15 K) of 0.00247 and a solubility (mole fraction) (in isopropanol, 278.15 K) of 0.000253. For the same compound, the solubility (mole fraction) (in isopropanol, 283.15 K) was 0.00027, the solubility (mole fraction) (in isopropanol, 288.15 K) was 0.000303 and the solubility (mole fraction) (in isopropanol, 293.15 K) was 0.000318. It also gave a solubility (mole fraction) (in isopropanol, 298.15 K) of 0.000348, a solubility (mole fraction) (in isopropanol, 303.15 K) of 0.000373 and a solubility (mole fraction) (in isopropanol, 308.15 K) of 0.000403. It also gave a solubility (mole fraction) (in isopropanol, 313.15 K) of 0.000429, a solubility (mole fraction) (in isopropanol, 318.15 K) of 0.000461 and a solubility (mole fraction) (in isopropanol, 323.15 K) of 0.000494. The solubility (mole fraction) (in isopropanol, 328.15 K) was 0.000525, the solubility (mole fraction) (in methanol, 278.15 K) was 0.000247 and the solubility (mole fraction) (in methanol, 283.15 K) was 0.000263. For the same compound, the solubility (mole fraction) (in methanol, 288.15 K) was 0.000284, the solubility (mole fraction) (in methanol, 293.15 K) was 0.000299 and the solubility (mole fraction) (in methanol, 298.15 K) was 0.000318. For the same compound, the solubility (mole fraction) (in methanol, 303.15 K) was 0.000342, the solubility (mole fraction) (in methanol, 308.15 K) was 0.000362 and the solubility (mole fraction) (in methanol, 313.15 K) was 0.000383. The solubility (mole fraction) (in methanol, 318.15 K) was 0.000403, the solubility (mole fraction) (in methanol, 323.15 K) was 0.000432 and the solubility (mole fraction) (in methanol, 328.15 K) was 0.00045.

From BigSolDB 2.1
